{"source": "ChEMBL document CHEMBL1201862", "about": "“PubChem BioAssay data set” (2004)", "key": {"[1]": {"target": "Sphingosine 1-phosphate receptor 2 (Homo sapiens, UniProt O95136)", "sequence (O95136 whole entry)": "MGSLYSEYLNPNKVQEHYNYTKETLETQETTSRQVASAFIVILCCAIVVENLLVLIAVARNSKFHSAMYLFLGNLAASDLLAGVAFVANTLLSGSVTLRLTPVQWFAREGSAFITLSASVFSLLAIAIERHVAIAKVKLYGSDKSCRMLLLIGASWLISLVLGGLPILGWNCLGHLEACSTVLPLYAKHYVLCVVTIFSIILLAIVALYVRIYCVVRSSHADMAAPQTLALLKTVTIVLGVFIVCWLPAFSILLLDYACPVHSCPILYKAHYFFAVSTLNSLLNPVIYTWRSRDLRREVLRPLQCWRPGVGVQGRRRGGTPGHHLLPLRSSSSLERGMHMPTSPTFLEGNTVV", "assay": "Dose Response Cell Based Assay for Agonists of the S1P2 Receptor. [Related pubchem assays: 729, 736, 843 ]", "assay_type": "functional"}, "[2]": {"assay": "Luminescence Cell-Based Dose Confirmation to Identify Activators of 5'UTR Stem-Loop Driven Alpha-Synuclein mRNA Translation in H4 Neuroglioblastoma Cells. [Related pubchem assays: 1829 (Project Summary), 1814 (Primary HTS)]", "assay_type": "functional"}, "[3]": {"assay": "Luminescence Cell-Based Dose Response to Identify Activators of Luciferase Translation or Activity in H4-C Neuroglioblastoma Cells. [Related pubchem assays: 1829 (Project Summary), 1814 (Primary HTS)]", "assay_type": "functional"}, "[4]": {"tested_on": "HEK293", "assay": "HEK cell cytotoxicity by LDH release, dose response, cytotoxicity control for IDE activator project, fluorescence, HEK cells (AID 588440);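 note: cytotoxicity by LDH release measuring loss of membrane integrity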", "assay_type": "functional, cell-based", "conditions": "Homo sapiens"}, "[5]": {"target": "CAAX prenyl protease 2 (Saccharomyces cerevisiae S288c, UniProt Q03530)", "assay_type": "biochemical"}, "[6]": {"target": "Mitogen-activated protein kinase kinase kinase kinase 2 (Homo sapiens, UniProt Q12851)", "assay_type": "functional"}, "[7]": {"target": "Serine/threonine-protein kinase PLK1 (Homo sapiens, UniProt P53350)", "assay_type": "functional"}, "[8]": {"target": "Fibroblast growth factor receptor 3 (Homo sapiens, UniProt P22607)", "sequence (P22607 whole entry)": "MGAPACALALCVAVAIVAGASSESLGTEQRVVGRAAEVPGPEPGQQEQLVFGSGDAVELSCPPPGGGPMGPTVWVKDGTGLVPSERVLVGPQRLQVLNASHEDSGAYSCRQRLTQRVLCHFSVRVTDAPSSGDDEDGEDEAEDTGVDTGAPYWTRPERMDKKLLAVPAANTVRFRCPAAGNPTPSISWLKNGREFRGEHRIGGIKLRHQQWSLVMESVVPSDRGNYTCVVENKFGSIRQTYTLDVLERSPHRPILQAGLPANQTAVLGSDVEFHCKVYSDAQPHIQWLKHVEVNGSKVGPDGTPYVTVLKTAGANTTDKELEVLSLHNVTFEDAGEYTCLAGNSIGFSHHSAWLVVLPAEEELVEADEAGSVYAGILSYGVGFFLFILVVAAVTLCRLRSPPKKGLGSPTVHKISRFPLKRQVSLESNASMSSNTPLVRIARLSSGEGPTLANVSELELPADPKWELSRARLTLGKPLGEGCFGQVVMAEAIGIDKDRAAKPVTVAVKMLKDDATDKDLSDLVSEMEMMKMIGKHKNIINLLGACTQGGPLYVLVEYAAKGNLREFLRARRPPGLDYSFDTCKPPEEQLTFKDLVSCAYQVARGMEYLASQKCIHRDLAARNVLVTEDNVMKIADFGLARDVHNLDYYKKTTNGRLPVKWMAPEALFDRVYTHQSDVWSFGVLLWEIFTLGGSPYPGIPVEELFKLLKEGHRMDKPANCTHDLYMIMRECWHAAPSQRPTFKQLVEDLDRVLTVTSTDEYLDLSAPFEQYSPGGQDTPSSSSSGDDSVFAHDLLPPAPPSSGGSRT", "assay_type": "functional"}, "[9]": {"target": "Serine/threonine-protein kinase PAK 4 (Homo sapiens, UniProt O96013)", "assay_type": "functional"}, "[10]": {"target": "3-phosphoinositide-dependent protein kinase 1 (Homo sapiens, UniProt O15530)", "assay_type": "functional"}, "[11]": {"target": "Mitogen-activated protein kinase 8 (Homo sapiens, UniProt P45983)", "assay_type": "functional"}, "[12]": {"target": "5'-AMP-activated protein kinase catalytic subunit alpha-1 (Homo sapiens, UniProt Q13131)", "sequence (Q13131 whole entry)": "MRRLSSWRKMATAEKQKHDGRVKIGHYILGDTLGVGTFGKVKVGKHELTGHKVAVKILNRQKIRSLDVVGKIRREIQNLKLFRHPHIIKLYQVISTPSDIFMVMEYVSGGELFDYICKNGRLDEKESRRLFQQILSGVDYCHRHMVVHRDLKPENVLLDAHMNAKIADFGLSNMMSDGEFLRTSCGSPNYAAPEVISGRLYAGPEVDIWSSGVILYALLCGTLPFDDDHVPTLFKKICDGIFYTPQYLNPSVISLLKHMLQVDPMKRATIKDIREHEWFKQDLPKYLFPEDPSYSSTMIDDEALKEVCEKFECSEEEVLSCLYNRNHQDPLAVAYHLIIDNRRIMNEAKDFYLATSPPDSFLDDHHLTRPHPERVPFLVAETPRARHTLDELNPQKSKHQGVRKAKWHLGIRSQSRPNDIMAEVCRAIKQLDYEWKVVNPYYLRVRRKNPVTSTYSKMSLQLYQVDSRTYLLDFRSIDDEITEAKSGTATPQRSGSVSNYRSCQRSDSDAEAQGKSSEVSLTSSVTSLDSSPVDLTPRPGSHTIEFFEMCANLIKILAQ", "assay_type": "functional"}, "[13]": {"target": "RAC-gamma serine/threonine-protein kinase (Homo sapiens, UniProt Q9Y243)", "assay_type": "functional"}, "[14]": {"target": "Misshapen-like kinase 1 (Homo sapiens, UniProt Q8N4C8)", "sequence (Q8N4C8 whole entry)": "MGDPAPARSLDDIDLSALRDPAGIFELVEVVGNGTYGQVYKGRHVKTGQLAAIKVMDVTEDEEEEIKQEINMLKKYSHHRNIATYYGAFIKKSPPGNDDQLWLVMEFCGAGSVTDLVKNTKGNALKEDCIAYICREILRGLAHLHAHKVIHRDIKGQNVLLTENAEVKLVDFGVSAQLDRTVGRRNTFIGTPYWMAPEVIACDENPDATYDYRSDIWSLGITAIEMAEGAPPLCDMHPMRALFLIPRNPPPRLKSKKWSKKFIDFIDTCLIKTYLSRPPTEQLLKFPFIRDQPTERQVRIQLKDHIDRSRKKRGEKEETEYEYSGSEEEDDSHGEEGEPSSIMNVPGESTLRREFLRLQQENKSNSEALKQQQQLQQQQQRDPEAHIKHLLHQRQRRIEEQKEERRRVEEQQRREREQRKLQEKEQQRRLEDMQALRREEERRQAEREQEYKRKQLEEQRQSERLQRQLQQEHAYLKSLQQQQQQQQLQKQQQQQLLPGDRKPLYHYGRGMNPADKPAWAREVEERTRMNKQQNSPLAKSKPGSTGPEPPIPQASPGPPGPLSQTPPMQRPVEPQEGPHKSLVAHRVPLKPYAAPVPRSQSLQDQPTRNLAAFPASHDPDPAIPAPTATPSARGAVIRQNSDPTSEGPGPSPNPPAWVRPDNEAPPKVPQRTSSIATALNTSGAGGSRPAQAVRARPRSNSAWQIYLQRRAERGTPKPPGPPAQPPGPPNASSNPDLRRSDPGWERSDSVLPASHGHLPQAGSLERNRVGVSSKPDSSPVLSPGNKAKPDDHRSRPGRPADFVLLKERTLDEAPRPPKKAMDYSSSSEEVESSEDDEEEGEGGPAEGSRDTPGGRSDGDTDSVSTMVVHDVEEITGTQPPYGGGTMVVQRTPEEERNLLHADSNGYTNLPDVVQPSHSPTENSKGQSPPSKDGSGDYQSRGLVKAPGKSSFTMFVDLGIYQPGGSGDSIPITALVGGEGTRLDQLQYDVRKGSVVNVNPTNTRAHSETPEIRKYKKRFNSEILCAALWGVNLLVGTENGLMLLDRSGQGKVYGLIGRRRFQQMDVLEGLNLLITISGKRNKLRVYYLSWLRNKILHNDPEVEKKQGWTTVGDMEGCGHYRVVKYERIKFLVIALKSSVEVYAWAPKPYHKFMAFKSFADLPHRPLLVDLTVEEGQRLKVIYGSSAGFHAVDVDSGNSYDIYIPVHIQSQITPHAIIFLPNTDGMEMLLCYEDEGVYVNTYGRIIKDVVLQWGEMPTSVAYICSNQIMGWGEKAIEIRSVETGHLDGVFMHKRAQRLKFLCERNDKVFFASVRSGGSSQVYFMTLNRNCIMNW", "assay_type": "functional"}, "[15]": {"target": "Insulin-like growth factor 1 receptor (Homo sapiens, UniProt P08069)", "assay": "Navigating the Kinome. Panel member name: IGF1R", "assay_type": "functional"}, "[16]": {"target": "Calcium/calmodulin-dependent protein kinase type II subunit gamma (Homo sapiens, UniProt Q13555)", "sequence (Q13555 whole entry)": "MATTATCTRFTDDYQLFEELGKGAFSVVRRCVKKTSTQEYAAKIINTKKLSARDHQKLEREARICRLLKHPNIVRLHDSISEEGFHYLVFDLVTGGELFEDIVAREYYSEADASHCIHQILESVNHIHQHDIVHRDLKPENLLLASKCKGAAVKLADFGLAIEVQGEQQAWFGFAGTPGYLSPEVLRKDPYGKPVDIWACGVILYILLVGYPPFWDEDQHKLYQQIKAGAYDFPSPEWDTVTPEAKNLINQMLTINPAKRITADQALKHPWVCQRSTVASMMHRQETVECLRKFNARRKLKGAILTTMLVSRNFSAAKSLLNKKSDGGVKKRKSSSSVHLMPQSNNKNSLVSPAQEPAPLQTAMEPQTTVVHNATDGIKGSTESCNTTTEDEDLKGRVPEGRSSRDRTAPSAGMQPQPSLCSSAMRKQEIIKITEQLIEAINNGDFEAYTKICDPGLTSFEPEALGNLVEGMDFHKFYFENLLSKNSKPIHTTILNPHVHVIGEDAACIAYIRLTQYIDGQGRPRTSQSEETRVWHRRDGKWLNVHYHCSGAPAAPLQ", "assay_type": "functional"}, "[17]": {"target": "Macrophage colony-stimulating factor 1 receptor (Homo sapiens, UniProt P07333)", "sequence (P07333 whole entry)": "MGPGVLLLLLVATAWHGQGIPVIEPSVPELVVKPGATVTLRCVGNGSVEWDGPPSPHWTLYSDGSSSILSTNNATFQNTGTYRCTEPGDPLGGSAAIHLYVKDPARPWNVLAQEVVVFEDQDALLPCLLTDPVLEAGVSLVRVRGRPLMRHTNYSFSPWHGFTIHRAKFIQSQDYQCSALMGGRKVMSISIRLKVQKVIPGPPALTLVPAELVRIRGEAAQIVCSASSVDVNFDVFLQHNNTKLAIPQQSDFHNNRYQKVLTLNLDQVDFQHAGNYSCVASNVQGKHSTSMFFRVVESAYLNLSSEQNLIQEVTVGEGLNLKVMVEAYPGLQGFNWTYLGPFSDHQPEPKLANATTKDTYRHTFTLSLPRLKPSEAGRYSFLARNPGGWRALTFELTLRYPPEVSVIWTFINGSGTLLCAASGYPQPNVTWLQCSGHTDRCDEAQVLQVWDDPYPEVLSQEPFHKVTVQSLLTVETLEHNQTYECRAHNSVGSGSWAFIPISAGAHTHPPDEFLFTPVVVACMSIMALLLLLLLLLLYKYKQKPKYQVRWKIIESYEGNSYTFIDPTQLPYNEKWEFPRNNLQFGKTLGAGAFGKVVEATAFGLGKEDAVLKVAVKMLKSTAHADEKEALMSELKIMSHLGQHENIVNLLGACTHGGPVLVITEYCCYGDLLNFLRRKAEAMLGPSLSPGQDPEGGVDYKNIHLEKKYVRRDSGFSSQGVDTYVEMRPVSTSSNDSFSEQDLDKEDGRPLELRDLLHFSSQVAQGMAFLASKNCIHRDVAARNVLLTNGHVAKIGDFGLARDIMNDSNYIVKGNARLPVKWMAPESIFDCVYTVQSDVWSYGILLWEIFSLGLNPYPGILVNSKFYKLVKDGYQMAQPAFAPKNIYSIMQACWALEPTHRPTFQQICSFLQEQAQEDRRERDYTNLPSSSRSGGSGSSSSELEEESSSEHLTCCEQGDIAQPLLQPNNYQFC", "assay_type": "functional"}, "[18]": {"target": "Serine/threonine-protein kinase 17A (Homo sapiens, UniProt Q9UEE5)", "sequence (Q9UEE5 whole entry)": "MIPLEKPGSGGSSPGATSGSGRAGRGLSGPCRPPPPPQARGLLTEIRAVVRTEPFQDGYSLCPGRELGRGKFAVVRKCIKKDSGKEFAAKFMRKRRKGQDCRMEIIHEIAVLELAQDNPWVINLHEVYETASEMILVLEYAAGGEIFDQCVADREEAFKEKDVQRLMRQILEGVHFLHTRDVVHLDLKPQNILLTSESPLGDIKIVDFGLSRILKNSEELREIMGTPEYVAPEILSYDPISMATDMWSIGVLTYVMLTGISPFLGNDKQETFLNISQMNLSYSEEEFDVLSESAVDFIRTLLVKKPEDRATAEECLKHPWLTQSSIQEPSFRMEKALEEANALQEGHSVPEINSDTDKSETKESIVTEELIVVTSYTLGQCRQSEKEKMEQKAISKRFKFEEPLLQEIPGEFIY", "assay_type": "functional"}, "[19]": {"target": "Tyrosine-protein kinase FRK (Homo sapiens, UniProt P42685)", "assay_type": "functional"}}, "note": "The source made the active and inactive calls.", "data": [{"smiles": "CCC(C)n1c(NC(=O)c2ccccc2)c(C#N)c2nc3ccccc3nc21", "note": "(centres undefined)", "values": [{"measurement": "EC50", "setting": "[1]", "result": "4.6 µM (active)"}]}, {"smiles": "CCN1/C(=C\\c2ccc3ccccc3[n+]2CC)Sc2cc(C)ccc21", "values": [{"measurement": "EC50", "setting": "[2]", "result": "> 12 µM (not active)"}, {"measurement": "EC50", "setting": "[3]", "result": "> 12 µM (not active)"}]}, {"smiles": "CCCCCCCCCCOC(=O)C[n+]1c(COc2ccc(C)cc2)n(C)c2ccccc21", "values": [{"measurement": "IC50", "setting": "[4]", "result": "7.28 µM (active)"}, {"measurement": "AC50", "setting": "[5]", "result": "5.51 µM (active)"}]}, {"smiles": "CN1CCN(c2nc(C3=C(c4c[nH]c5ccccc45)C(=O)NC3=O)c3ccccc3n2)CC1", "note": "[SOTRASTAURIN]", "values": [{"measurement": "Ki", "setting": "[6]", "result": "> 5.01 µM (inactive)"}, {"measurement": "Ki", "setting": "[7]", "result": "0.0631 µM (active)"}, {"measurement": "Ki", "setting": "[8]", "result": "> 2 µM (inactive)"}, {"measurement": "Ki", "setting": "[9]", "result": "> 5.01 µM (inactive)"}, {"measurement": "Ki", "setting": "[10]", "result": "1.58 µM (active)"}, {"measurement": "Ki", "setting": "[11]", "result": "> 3.98 µM (inactive)"}, {"measurement": "Ki", "setting": "[12]", "result": "0.631 µM (active)"}, {"measurement": "Ki", "setting": "[13]", "result": "> 10 µM (inactive)"}, {"measurement": "Ki", "setting": "[14]", "result": "0.00794 µM (active)"}, {"measurement": "Ki", "setting": "[15]", "result": "> 2 µM (inactive)"}, {"measurement": "Ki", "setting": "[16]", "result": "0.0794 µM (active)"}, {"measurement": "Ki", "setting": "[17]", "result": "> 2.51 µM (inactive)"}, {"measurement": "Ki", "setting": "[18]", "result": "> 3.98 µM (inactive)"}, {"measurement": "Ki", "setting": "[19]", "result": "> 2.51 µM (inactive)"}]}]}
